We go through five compounds from patent publication US20040044264A1, “Use of ionic liquids to separate olefins, diolefins and aromatics” (NOVA Chemicals (International) S.A., priority 2002, published 2004).

Like-named read-outs stand apart in the source and are kept apart here. Marks after values point to notes of the source that are not given here.

A short description of this data set: Hydrocarbon solubility in ionic liquid (volume change of hydrocarbon phase in graduated flask). How it is done:
The testing apparatus consisted of a flat-bottomed florence flask with a graduated neck. The flask was charged with 75 mL of bmim^+BF4^−, the level being recorded. A known quantity of C5 hydrocarbon was then added to the flask and the flask was sealed. The overall liquid level and the location of the liquid-liquid interfacial meniscus were recorded. The mixture was then agitated to contact the two liquids and the two phases were allowed to separate. The locations of all meniscuses were then recorded. Agitation and phase separation was then repeated until the liquid levels remained unchanged. The volume change of the hydrocarbon phase corresponds to the quantity of hydrocarbon dissolved in the ionic liquid. The testing was conducted at ambient temperature.
The procedure described in Example 1 was performed instead with ethylcyclohexane, ethylbenzene, and styrene. The ionic liquid used was 1-butyl-3-methylimidazolium tetrafluoroborate.

[1] abbreviates: in bmim+ BF4- ionic liquid containing 1.69 M AgBF4, ambient temperature.
Where [2] appears, read: in bmim+ BF4- ionic liquid containing 1.69 M AgBF4.

For the compound `C=CC(=C)C` [Isoprene], under setting [1], the “Solubility (mol C5/L ionic liquid)” value is 1.132 mol C5/L ionic liquid and the “Solubility (mol C5/mol Ag+)” value was 0.670 mol C5/mol Ag+.

In the case of `CCC1CCCCC1` [Ethylcyclohexane], the “Solubility (mol C8/L ionic liquid)” value is recorded as 0.10 mol C8/L ionic liquid and the “Solubility (mol C8/mol Ag+)” value worked out at 0.06 mol C8/mol Ag+.

As to `CCC(C)C` [Isopentane], the “Solubility (mol C5/L ionic liquid)” value was 0.044 mol C5/L ionic liquid and the “Solubility (mol C5/mol Ag+)” value was determined as 0.026 mol C5/mol Ag+.

Consider `C=Cc1ccccc1` [Styrene], for which, under setting [2], the “Solubility (mol C8/L ionic liquid)” value was > 7.01* mol C8/L ionic liquid and the “Solubility (mol C8/mol Ag+)” value is recorded as 4.15* mol C8/mol Ag+.

`CCc1ccccc1` [Ethylbenzene]: under setting [2], the “Solubility (mol C8/L ionic liquid)” value worked out at 7.55 mol C8/L ionic liquid and the “Solubility (mol C8/mol Ag+)” value worked out at 4.47 mol C8/mol Ag+.
